Results on ten compounds are retold here after patent US20240025863A1, “SOS1 PROTEIN DEGRADERS, PHARMACEUTICAL COMPOSITIONS THEREOF, AND THEIR THERAPEUTIC APPLICATIONS” (BioTheryX, Inc., priority 2020, published 2024).

By IC50 is commonly meant the concentration that gives 50% inhibition.

Holding throughout (assay type): cell-based
One assay concerns AsPC-1 cells (G12D). In words: Cell viability assay (CellTiter-Glo), AsPC-1 cells. The conditions noted are these: Homo sapiens, ASPC1, 72 h, 3 days incubation, CellTiter-Glo luminescence, read-out: Inhibition of Cancerous Cells IC50 AsPC-1 (G12D). On the procedure: H358, H23, SW48, and AsPC-1 cells were cultured in RPMI 1640 media supplemented with 10% fetal bovine serum, streptomycin, and penicillin. Lovo and SW480 cells were cultured in DMEM media supplemented with 10% fetal bovine serum, streptomycin, and penicillin. The cell lines were plated in their respective medium supplemented with 2.5% fetal bovine serum, streptomycin, and penicillin. All cell lines were plated in white walled 96-well plates at 2,000 cells/well or 384-well plates at 500 cells/well, except Lovo, which were plated at 4,000 or 1,000 cells/well, respectively. The cells were incubated in DMSO (control) or a compound for 3 days at 37° C. under 5% CO2. A CELLTITER-GLO® reagent (100 μL) was then added to each well. After a 10 min incubation with shaking, luminescence was measured using an ENVISION® multimode plate reader.
(In general: Cellular ATP, detected with luciferase, serves as a proxy for viable cell number.)

The test system of another assay is SW480 cells (G12V). Description: Cell viability assay (CellTiter-Glo), SW480 cells. The conditions noted are these: Homo sapiens, 72 h; SW480 cells, 3 days incubation, CellTiter-Glo luminescence; read-out: Inhibition of Cancerous Cells IC50 SW480 (G12V). An outline of the steps: (§1)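 Each cell line is treated with compound for 3 days at 37 °C under 5% CO2 in its own medium containing 2.5% FBS. ATP-based CellTiter-Glo luminescence, measured after 10 min shaking, serves as the viability signal relative to DMSO control.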

A further assay concerns H358 cells (G12C). Description: Cell viability assay (CellTiter-Glo), H358 cells. The conditions noted are these: Homo sapiens, NCI-H358, 72 h; H358 cells, 3 days incubation, CellTiter-Glo luminescence; read-out: Inhibition of Cancerous Cells IC50 H358 (G12C). The method in brief:
as §1

For another assay, the system named is Lovo cells (G13D). Description: Cell viability assay (CellTiter-Glo), Lovo cells. The conditions noted are these: Homo sapiens, 72 h; Lovo cells, 3 days incubation, CellTiter-Glo luminescence; read-out: Inhibition of Cancerous Cells IC50 Lovo (G13D). The method in brief: as §1
A further assay relates to SW48 cells (wt). In words: Cell viability assay (CellTiter-Glo), SW48 cells. The conditions noted are these: Homo sapiens, 72 h; SW48 cells, 3 days incubation, CellTiter-Glo luminescence; read-out: Inhibition of Cancerous Cells IC50 SW48 (wt). An outline of the steps:
as §1

For `COc1cc2c(N[C@H](C)c3cccc(Br)c3)nc(C)nc2cc1OCCN1CCN(CCN2CCC(c3cc4c(cc3F)C(=O)N(C3CCC(=O)NC3=O)C4)CC2)CC1` (stereo partly drawn) [Compound A67, 3-(5-(1-(2-(4-(2-((4-(((R)-1-(3-Bromophenyl)ethyl)amino)-6-methoxy-2-methyl-quinazolin-7-yl)oxy)ethyl)piperazin-1-yl)ethyl)piperidin-4-yl)-6-fluoro-1-oxoisoindolin-2-yl)piperidine-2,6-dione], the IC50 stood at 2100 nM in the assay with AsPC-1 cells (G12D); 2700 nM in the assay on SW480 cells (G12V); 1700 nM in the assay with H358 cells (G12C); 1000 nM in the assay on Lovo cells (G13D); 1100 nM in the assay on SW48 cells (wt).
For `COc1cc2c(N[C@@H](C)c3cc(N)cc(C(F)(F)F)c3)nc(C)nc2cc1OCCCCCCCN1CCC(c2cc3c(cc2F)C(=O)N(C2CCC(=O)NC2=O)C3)CC1` (stereo partly drawn) [Compound A68, 3-(5-(1-(7-((4-(((S)-1-(3-Amino-5-(trifluoromethyl)phenyl)ethyl)amino)-6-methoxy-2-methylquinazolin-7-yl)oxy)heptyl)piperidin-4-yl)-6-fluoro-1-oxoisoindolin-2-yl)piperidine-2,6-dione], the IC50 with AsPC-1 cells (G12D) worked out at 1500 nM; with SW480 cells (G12V), 530 nM; with H358 cells (G12C), 690 nM; in the assay with Lovo cells (G13D), 630 nM; in the assay with SW48 cells (wt), 500 nM.
With `CN[C@@H](C)C(=O)N[C@H](C(=O)N1CCC[C@H]1c1nc(C(=O)c2cccc(OCCCCCCOc3cc4nc(C)nc(N[C@H](C)c5cccc(Br)c5)c4cc3OC)c2)cs1)C1CCCCC1` [Compound B1, (S)—N—((S)-2-((S)-2-(4-(3-((6-((4-(((R)-1-(3-bromophenyl)ethyl)amino)-6-methoxy-2-methylquinazolin-7-yl)oxy)hexyl)oxy)benzoyl)thiazol-2-yl)pyrrolidin-1-yl)-1-cyclohexyl-2-oxoethyl)-2-(methylamino)propanamide], the IC50 in the assay on AsPC-1 cells (G12D) stood at 3000 nM; with SW480 cells (G12V), 980 nM; in the assay with H358 cells (G12C), 2400 nM; in the assay with Lovo cells (G13D), 720 nM; with SW48 cells (wt), 1100 nM.
In the case of `CN[C@@H](C)C(=O)N[C@H](C(=O)N1CCC[C@H]1c1nc(C(=O)c2cccc(OCCCCCCCCOc3cc4nc(C)nc(N[C@H](C)c5cccc(Br)c5)c4cc3OC)c2)cs1)C1CCCCC1` [Compound B2, (S)—N—((S)-2-((S)-2-(4-(3-((8-((4-(((R)-1-(3-Bromophenyl)ethyl)amino)-6-methoxy-2-methylquinazolin-7-yl)oxy)octyl)oxy)benzoyl)thiazol-2-yl)pyrrolidin-1-yl)-1-cyclohexyl-2-oxoethyl)-2-(methylamino)propanamide], the half-maximal inhibitory concentration (IC50) with AsPC-1 cells (G12D) worked out at 1200 nM; in the assay with SW480 cells (G12V), 500 nM; with H358 cells (G12C), 980 nM; in the assay on Lovo cells (G13D), 480 nM; in the assay on SW48 cells (wt) it was 980 nM.
Consider `CN[C@@H](C)C(=O)N[C@H](C(=O)N1CCC[C@H]1c1nc(C(=O)c2cccc(OCCCCCCCCCCOc3cc4nc(C)nc(N[C@H](C)c5cccc(Br)c5)c4cc3OC)c2)cs1)C1CCCCC1` [Compound B3, (S)—N—((S)-2-((S)-2-(4-(3-((10-((4-(((R)-1-(3-Bromophenyl)ethyl)amino)-6-methoxy-2-methylquinazolin-7-yl)oxy)decyl)oxy)benzoyl)thiazol-2-yl)pyrrolidin-1-yl)-1-cyclohexyl-2-oxoethyl)-2-(methylamino)propanamide], for which the IC50 in the assay on AsPC-1 cells (G12D) was found to be 5000 nM; with SW480 cells (G12V), 2300 nM; in the assay with H358 cells (G12C), 2200 nM; in the assay with Lovo cells (G13D), 1400 nM; with SW48 cells (wt), 4700 nM.
As to `CN[C@@H](C)C(=O)N[C@H](C(=O)N1CCC[C@H]1c1nc(C(=O)c2cccc(OCCCCCCCCCCCCOc3cc4nc(C)nc(N[C@H](C)c5cccc(Br)c5)c4cc3OC)c2)cs1)C1CCCCC1` [Compound B4, (S)—N—((S)-2-((S)-2-(4-(3-((12-((4-(((R)-1-(3-Bromophenyl)ethyl)amino)-6-methoxy-2-methylquinazolin-7-yl)oxy)dodecyl)oxy)benzoyl)thiazol-2-yl)pyrrolidin-1-yl)-1-cyclohexyl-2-oxoethyl)-2-(methylamino)propanamide], the IC50 is over 10000 nM in the assay on AsPC-1 cells (G12D); over 10000 nM in the assay on SW480 cells (G12V); 7600 nM with H358 cells (G12C); 4000 nM in the assay with Lovo cells (G13D); over 10000 nM in the assay with SW48 cells (wt).
As for `CN[C@@H](C)C(=O)N[C@H](C(=O)N1C[C@@H](NC(=O)CCCCCCOc2cc3nc(C)nc(N[C@H](C)c4cccc(Br)c4)c3cc2OC)C[C@H]1C(=O)N[C@@H]1CCCc2ccccc21)C1CCCCC1` [Compound B5, (2S,4S)-4-(7-((4-(((R)-1-(3-bromophenyl)ethyl)amino)-6-methoxy-2-methyl-quinazolin-7-yl)oxy)heptanamido)-1-((S)-2-cyclohexyl-2-((S)-2-(methylamino)propanamido)-acetyl)-N—((R)-1,2,3,4-tetrahydronaphthalen-1-yl)pyrrolidine-2-carboxamide], the IC50 amounted to 1500 nM in the assay on AsPC-1 cells (G12D); 440 nM in the assay with SW480 cells (G12V); 650 nM in the assay with H358 cells (G12C); 770 nM with Lovo cells (G13D); 750 nM in the assay with SW48 cells (wt).
Take `COc1cc2c(N[C@H](C)c3cccc(Br)c3)nc(C)nc2cc1OCCCCCCCCNC(=O)[C@H](CC(C)C)NC(=O)[C@@H](O)[C@H](N)Cc1ccccc1` [Compound B7, (S)-2-((2S,3R)-3-Amino-2-hydroxy-4-phenylbutanamido)-N-(8-((4-(((R)-1-(3-bromophenyl)ethyl)amino)-6-methoxy-2-methylquinazolin-7-yl)oxy)octyl)-4-methylpentanamide]: the IC50 with AsPC-1 cells (G12D) was 1200 nM; with SW480 cells (G12V), 610 nM; with H358 cells (G12C), 1300 nM; in the assay on Lovo cells (G13D) it was 680 nM; with SW48 cells (wt), 920 nM.
In the same order, the values of `COc1cc2c(N[C@H](C)c3cccc(Br)c3)nc(C)nc2cc1OCCCCCCCCCCCCNC(=O)[C@H](CC(C)C)NC(=O)[C@@H](O)[C@H](N)Cc1ccccc1` [Compound B9, (S)-2-((2S,3R)-3-Amino-2-hydroxy-4-phenylbutanamido)-N-(12-((4-(((R)-1-(3-bromophenyl)ethyl)amino)-6-methoxy-2-methylquinazolin-7-yl)oxy)dodecyl)-4-methylpentanamide] are 2700 nM, 960 nM, 1200 nM, 730 nM and 1400 nM.
In the same order, the values of `CN[C@@H](C)C(=O)N[C@H](C(=O)N1C[C@@H](NC(=O)CCCCCCCCCCCCOc2cc3nc(C)nc(N[C@H](C)c4cccc(Br)c4)c3cc2OC)C[C@H]1C(=O)N[C@@H]1CCCc2ccccc21)C1CCCCC1` [Compound B10, (2S,4S)-4-(13-((4-(((R)-1-(3-Bromophenyl)ethyl)amino)-6-methoxy-2-methyl-quinazolin-7-yl)oxy)tridecanamido)-1-((S)-2-cyclohexyl-2-((S)-2-(methylamino)propanamido)-acetyl)-N—((R)-1,2,3,4-tetrahydronaphthalen-1-yl)pyrrolidine-2-carboxamide] are 1500 nM, 720 nM, 1600 nM, 670 nM and 1300 nM.
